The record followed here is ChEMBL document CHEMBL1139443, “Antitumor agents. Part 230: C4'-esters of GL-331 as cytotoxic agents and DNA topoisomerase II inhibitors” (Bioorg Med Chem Lett, 2004).

The structures appear in SMILES notation. pEC50: −log10 of the molar value. A value given as a limit tells only on which side of the number the result lay.

Data set [1] can be described thus: Lethal dose against KB-7d cells when treated for 30 min. Particulars: human, read-out: LD50. It is filed as toxicity, cell-based.
Data set [2] is described as follows: Lethal dose against KB cells when treated for 30 min. It is filed as toxicity, cell-based. To be noted: human, read-out: LD50.
Data set [3] deals with KB. Nature of the data set: Effective dose required for inhibition of KB-7d cell replication after 3 days of continuous treatment. Particulars: Homo sapiens, 72 h, read-out: ED50 (the source's name). Type of data set: functional.
The test system of data set [4] is KB. Kind of data set: Compound was evaluated for cytotoxicity against KB-7d cells at 10 uM concentration. Type of data set: functional. Particulars: Homo sapiens.
Data set [5] has as its system KB. Kind of data set: Compound was evaluated for cytotoxicity against KB cells at 10 uM concentration. Particulars: Homo sapiens. It is filed as functional.
Data set [6] concerns KB. Nature of the data set: Lethal dose against KB-7d cells when treated for 30 min; NMD = not markedly different from control. Type of data set: toxicity, cell-based. Particulars: human, 0.5 h.
Data set [7] concerns KB. Nature of the data set: Compound was evaluated for cytotoxicity against KB-7d cells at 10 uM concentration; NMD = not markedly different from control. Type of data set: functional, cell-based. Particulars: Homo sapiens.

`COc1cc([C@@H]2c3cc4c(cc3[C@@H](Nc3ccc([N+](=O)[O-])cc3)[C@H]3COC(=O)[C@H]23)OCO4)cc(OC)c1OC(=O)C(F)(F)F`: the CC50 at 0.5 h in data set [1] and in data set [2] was < 10 µM in each case. Moreover, the pEC50 with KB [3] was 5.82. Also, the values for the cytotoxicity at 10 µM in the data set on KB [4] and in the data set on KB [5] were 90% and 62%, respectively.
`COc1cc([C@@H]2c3cc4c(cc3[C@@H](O[C@@H]3O[C@@H]5CO[C@@H](C)O[C@H]5[C@H](O)[C@H]3O)[C@H]3COC(=O)[C@H]23)OCO4)cc(OC)c1O` [ETOPOSIDE]: the LD50 entry with KB [6] is “Not Markedly Different”. Further, the CC50 at 0.5 h in data set [2] came to 50 µM. Besides, the pEC50 with KB [3] was 4.96. In addition, the Cytotoxicity entry in the data set with KB [7] is “Not Markedly Different”. Besides, in the data set on KB [5], the cytotoxicity at 10 µM was 52%.
`COc1cc([C@@H]2c3cc4c(cc3[C@@H](Nc3ccc([N+](=O)[O-])cc3)[C@H]3COC(=O)[C@H]23)OCO4)cc(OC)c1OC(=O)CCl`: the CC50 at 0.5 h in data set [1] and in data set [2] was > 10 µM throughout. Further, the pEC50 in the data set with KB [3] was 5.64. Besides, the cytotoxicity at 10 µM in the data set with KB [4] came out at 46%; in the data set on KB [5], 43%.
Take `COc1cc([C@@H]2c3cc4c(cc3[C@@H](Nc3ccc([N+](=O)[O-])cc3)[C@H]3COC(=O)[C@H]23)OCO4)cc(OC)c1OC(C)=O`: the CC50 at 0.5 h is < 10 µM in data set [1] and > 20 µM in data set [2]. The pEC50 in the data set on KB [3] was 5.54. The cytotoxicity at 10 µM in the data set with KB [4] was 60%; with KB [5], 28%.
On to `COc1cc([C@@H]2c3cc4c(cc3[C@@H](Nc3ccc([N+](=O)[O-])cc3)[C@H]3COC(=O)[C@H]23)OCO4)cc(OC)c1O`, for which the CC50 at 0.5 h in data set [1] and in data set [2] was < 10 µM throughout. Further, the pEC50 in the data set with KB [3] was 5.82. Also, the cytotoxicity at 10 µM with KB [4] amounted to 94%; with KB [5], 66%.
